As a reminder, the MIC is the least concentration at which growth counts as inhibited.

Converted amounts (≈) assume the structure as drawn.

Among the data in patent US12297204B2, “5-(substitutedphenyl)-7-thioxo-7,8-dihydropyrimido[4,5-d]pyrimidine-2,4(1H,3H)-dione analogues as antibacterial agents” (KING FAISAL UNIVERSITY, priority 2023, dated 2025) are MIC values, retold here.

One assay relates to A. flavus. The assay is described as follows: Antimicrobial activity MIC, A. flavus. In kind it is cell-based, Aspergillus flavus.
A further assay relates to E. coli. Kind of assay: Antimicrobial activity MIC, E. coli. In kind it is cell-based, Escherichia coli (MTCC 443).
The test system of another assay is P. citrinum. Kind of assay: Antimicrobial activity MIC, P. citrinum. In kind it is cell-based, Penicillium citrinum.
In the next assay the test system is S. aureus. Kind of assay: Antimicrobial activity MIC, S. aureus. Type of assay: cell-based, Staphylococcus aureus (MTCC 9660).
The next assay has as its system C. albicans. The assay is described as follows: Antimicrobial activity MIC, C. albicans. In kind it is cell-based, Candida albicans.
In the next assay the test system is T. atroviridae. Kind of assay: Antimicrobial activity MIC, T. atroviridae. Type of assay: cell-based, Trichoderma atroviride.
Another assay concerns P. aeruginosa. The assay is described as follows: Antimicrobial activity MIC, P. aeruginosa. In kind it is cell-based, Pseudomonas aeruginosa (MTCC 424).
For the next assay, the system named is B. subtilis. The assay is described as follows: Antimicrobial activity MIC, B. subtilis. In kind it is cell-based, Bacillus subtilis (MTCC 441).

On to “5-(4-(Benzyloxy)phenyl)-7-thioxo-7,8-dihydropyrimido[4,5-d]pyrimidine-2,4(1H,3H)-dione [Compound 4b]”, for which the MIC against A. flavus (A. flavus) was 0.01 µM; in the assay with E. coli (E. coli) it was 0.17 µM; against P. citrinum (P. citrinum), 0.01 µM; in the assay on S. aureus (S. aureus), 0.34 µM; against C. albicans (C. albicans), 0.005 µM; against T. atroviridae (T. atroviridae), 0.01 µM. The MIC in the assay with P. aeruginosa (P. aeruginosa) and against B. subtilis (B. subtilis) was 0.17 µM throughout.

Take `O=c1[nH]c(=O)c2c(-c3cccc(OCc4ccccc4)c3)nc(=S)[nH]c2[nH]1` [Compound 4a, 5-(3-(Benzyloxy)phenyl)-7-thioxo-7,8-dihydropyrimido[4,5-d]pyrimidine-2,4(1H,3H)-dione]: the minimal inhibitory concentration (MIC) in the assay on A. flavus (Aspergillus flavus) came out at 0.17 µM (≈ 0.0643 µg/mL); in the assay on E. coli (Escherichia coli) it was 0.04 µM (≈ 0.0151 µg/mL); in the assay with P. citrinum (Penicillium citrinum) it was 0.17 µM (≈ 0.0643 µg/mL); against S. aureus (Staphylococcus aureus), 0.02 µM (≈ 0.00757 µg/mL); with C. albicans (Candida albicans), 0.08 µM (≈ 0.0303 µg/mL); with T. atroviridae (Trichoderma atroviride), 0.17 µM (≈ 0.0643 µg/mL). The MIC amounted to 0.04 µM (≈ 0.0151 µg/mL) against P. aeruginosa (Pseudomonas aeruginosa) and 0.01 µM (≈ 0.00378 µg/mL) against B. subtilis (Bacillus subtilis).

As to `COc1ccc(-c2nc(=S)[nH]c3[nH]c(=O)[nH]c(=O)c23)cc1O` [Compound 4c, 5-(3-Hydroxy-4-methoxyphenyl)-7-thioxo-7,8-dihydropyrimido[4,5-d]pyrimidine-2,4(1H,3H)-dione], the minimum inhibitory concentration (MIC) against A. flavus (Aspergillus flavus) is 0.05 µM (≈ 0.0159 µg/mL); against E. coli (Escherichia coli), 0.2 µM (≈ 0.0637 µg/mL); with P. citrinum (Penicillium citrinum) it was 0.05 µM (≈ 0.0159 µg/mL); with S. aureus (Staphylococcus aureus), 0.4 µM (≈ 0.127 µg/mL); with C. albicans (Candida albicans), 0.03 µM (≈ 0.00955 µg/mL); in the assay with T. atroviridae (Trichoderma atroviride), 0.05 µM (≈ 0.0159 µg/mL). The minimum inhibitory concentration (MIC) with P. aeruginosa (Pseudomonas aeruginosa) and with B. subtilis (Bacillus subtilis) was 0.2 µM (≈ 0.0637 µg/mL) throughout.

Take `COc1ccc(-c2nc(=S)[nH]c3c2c(=O)n(C)c(=O)n3C)cc1O` [Compound 4d, 5-(3-Hydroxy-4-methoxyphenyl)-1,3-dimethyl-7-thioxo-7,8-dihydropyrimido[4,5-d]pyrimid-ine-2,4(1H,3H)-dione]: the minimal inhibitory concentration (MIC) was 0.37 µM (≈ 0.128 µg/mL) against A. flavus (Aspergillus flavus); 0.012 µM (≈ 0.00416 µg/mL) in the assay on E. coli (Escherichia coli); 0.37 µM (≈ 0.128 µg/mL) against P. citrinum (Penicillium citrinum); 0.012 µM (≈ 0.00416 µg/mL) in the assay with S. aureus (Staphylococcus aureus); 0.18 µM (≈ 0.0623 µg/mL) against C. albicans (Candida albicans); 0.37 µM (≈ 0.128 µg/mL) in the assay with T. atroviridae (Trichoderma atroviride). The MIC is 0.012 µM (≈ 0.00416 µg/mL) against P. aeruginosa (Pseudomonas aeruginosa) and 0.006 µM (≈ 0.00208 µg/mL) in the assay with B. subtilis (Bacillus subtilis).
